pKd: −log10 of the molar value.
Target: Heat shock protein HSP 90-beta (Homo sapiens, UniProt P08238)
Assay: Binding affinity to human recombinant HSP90

Sequence of Heat shock protein HSP 90-beta (P08238 whole entry): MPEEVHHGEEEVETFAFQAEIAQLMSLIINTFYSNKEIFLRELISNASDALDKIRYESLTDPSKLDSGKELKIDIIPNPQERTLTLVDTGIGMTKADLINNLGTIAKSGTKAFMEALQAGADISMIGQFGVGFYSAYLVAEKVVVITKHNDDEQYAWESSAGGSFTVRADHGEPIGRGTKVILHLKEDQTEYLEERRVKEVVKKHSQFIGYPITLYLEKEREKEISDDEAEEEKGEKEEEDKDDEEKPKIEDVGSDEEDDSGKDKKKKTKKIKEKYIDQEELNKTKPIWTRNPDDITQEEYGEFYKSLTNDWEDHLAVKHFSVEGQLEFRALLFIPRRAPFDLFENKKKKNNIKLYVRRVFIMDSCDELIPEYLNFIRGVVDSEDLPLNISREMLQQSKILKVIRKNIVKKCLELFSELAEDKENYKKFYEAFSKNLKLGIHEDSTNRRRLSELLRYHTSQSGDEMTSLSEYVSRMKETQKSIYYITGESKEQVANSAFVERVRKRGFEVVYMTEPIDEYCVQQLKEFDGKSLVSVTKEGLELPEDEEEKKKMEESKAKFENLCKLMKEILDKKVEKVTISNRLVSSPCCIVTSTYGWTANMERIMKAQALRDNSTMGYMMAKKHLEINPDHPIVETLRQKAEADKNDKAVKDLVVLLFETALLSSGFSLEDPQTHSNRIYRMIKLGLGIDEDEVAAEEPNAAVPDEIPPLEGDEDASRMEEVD

Compound	pKd
C=CCO/N=C1/[C@@H](OC)C[C@H](C)Cc2c(O)c(cc(O)c2N=CCN(C)C)NC(=O)C(C)=CC=C[C@H](OC)[C@@H](OC(N)=O)/C(C)=C/[C@@H]1C [(8S,9S,12S,14S,16R)-13-(allyloxyimino)-19-(2-(dimethylamino)ethylamino)-8,14-dimethoxy-4,10,12,16-tetramethyl-3,20,22-trioxo-2-azabicyclo[16.3.1]docosa-1(21),4,6,10,18-pentaen-9-yl carbamate]	< 4.00
CO[C@H]1C[C@H](C)Cc2c(O)c(cc(O)c2N=CCN(C)C)NC(=O)C(C)=CC=C[C@H](OC)[C@@H](OC(N)=O)C(C)=C[C@H](C)C1N=O (stereo partly drawn) [(8S,9S,12S,14S,16R)-19-(2-(dimethylamino)ethylamino)-13-(hydroxyimino)-8,14-dimethoxy-4,10,12,16-tetramethyl-3,20,22-trioxo-2-azabicyclo[16.3.1]docosa-1(21),4,6,10,18-pentaen-9-yl carbamate]	< 5.00
CO[C@H]1C=CC=C(C)C(=O)Nc2cc(O)c(N=CCN(C)C)c(c2O)C[C@@H](C)C[C@H](OC)[C@H](NCCN(C)C)[C@@H](C)/C=C(\C)[C@@H]1OC(N)=O [(8S,9S,12S,13R,14S,16R)-13,19-bis(2-(dimethylamino)ethylamino)-8,14-dimethoxy-4,10,12,16-tetramethyl-3,20,22-trioxo-2-azabicyclo[16.3.1]docosa-1(21),4,6,10,18-pentaen-9-yl carbamate]	< 4.30
CO[C@H]1[C@@H](OC)C[C@H](C)Cc2c(O)c(cc(O)c2N=CCN(C)C)NC(=O)C(C)=CC=C[C@H](OC)[C@@H](OC(N)=O)/C(C)=C/[C@@H]1C [11-O-Methyl-17-[2-(dimethylamino)ethyl]amino-17-demethoxygeldanamycin]	6.10
CO[C@H]1C=CC=C(C)C(=O)Nc2cc(O)c(N=CCF)c(c2O)C[C@@H](C)C[C@H](OC)[C@H](OC(=O)CN)[C@@H](C)/C=C(\C)[C@@H]1OC(N)=O [(8S,9S,12S,13R,14S,16R)-9-(carbamoyloxy)-19-(2-fluoroethylamino)-8,14-dimethoxy-4,10,12,16-tetramethyl-3,20,22-trioxo-2-azabicyclo[16.3.1]docosa-1(21),4,6,10,18-pentaen-13-yl 2-aminoacetate]	< 4.60
CO[C@H]1C=CC=C(C)C(=O)Nc2cc(O)c(N=CCN(C)C)c(c2O)C[C@@H](C)C[C@H](OC)[C@H](NCCC(F)(F)F)[C@@H](C)/C=C(\C)[C@@H]1OC(N)=O [(8S,9S,12S,13R,14S,16R)-19-(2-(dimethylamino)ethylamino)-8,14-dimethoxy-4,10,12,16-tetramethyl-3,20,22-trioxo-13-(3,3,3-trifluoropropylamino)-2-azabicyclo[16.3.1]docosa-1(21),4,6,10,18-pentaen-9-yl carbamate]	< 5.00
CO[C@H]1C=CC=C(C)C(=O)Nc2cc(O)c(N=CCN(C)C)c(c2O)C[C@@H](C)C[C@H](OC)[C@H](NCCF)[C@@H](C)/C=C(\C)[C@@H]1OC(N)=O	< 4.30
CO[C@H]1C[C@H](C)Cc2c(O)c(cc(O)c2N=CCN(C)C)NC(=O)C(C)=CC=C[C@H](OC)[C@@H](OC(N)=O)/C(C)=C/[C@H](C)/C1=N\OCCN(C)C [(8S,9S,12S,14S,16R)-13-(2-(dimethylamino)ethoxyimino)-19-(2-(dimethylamino)ethylamino)-8,14-dimethoxy-4,10,12,16-tetramethyl-3,20,22-trioxo-2-azabicyclo[16.3.1]docosa-1(21),4,6,10,18-pentaen-9-yl carbamate]	< 4.00
CO[C@H]1C=CC=C(C)C(=O)Nc2cc(O)c(N=CCN3CCCC3)c(c2O)C[C@@H](C)C[C@H](OC)[C@H](O)[C@@H](C)/C=C(\C)[C@@H]1OC(N)=O [(8S,9S,12S,13R,14S,16R)-13-hydroxy-8,14-dimethoxy-4,10,12,16-tetramethyl-3,20,22-trioxo-19-(2-(pyrrolidin-1-yl)ethylamino)-2-azabicyclo[16.3.1]docosa-1(21),4,6,10,18-pentaen-9-yl carbamate]	6.40
CNCC=Nc1c(O)cc2c(O)c1C[C@@H](C)C[C@H](OC)[C@H](OC(=O)CN)[C@@H](C)/C=C(\C)[C@H](OC(N)=O)[C@@H](OC)C=CC=C(C)C(=O)N2 [(8S,9S,12S,13R,14S,16R)-9-(carbamoyloxy)-8,14-dimethoxy-4,10,12,16-tetramethyl-19-(2-(methylamino)ethylamino)-3,20,22-trioxo-2-azabicyclo[16.3.1]docosa-1(21),4,6,10,18-pentaen-13-yl 2-aminoacetate]	< 4.60
CO[C@H]1C=CC=C(C)C(=O)Nc2cc(O)c(N=CCN3CCC3)c(c2O)C[C@@H](C)C[C@H](OC)[C@H](O)[C@@H](C)/C=C(\C)[C@@H]1OC(N)=O [(8S,9S,12S,13R,14S,16R)-19-(2-(azetidin-1-yl)ethylamino)-13-hydroxy-8,14-dimethoxy-4,10,12,16-tetramethyl-3,20,22-trioxo-2-azabicyclo[16.3.1]docosa-1(21),4,6,10,18-pentaen-9-yl carbamate]	6.40
CO[C@H]1C=CC=C(C)C(=O)Nc2cc(O)c(N=CCc3cnc[nH]3)c(c2O)C[C@@H](C)C[C@H](OC)[C@H](O)[C@@H](C)/C=C(\C)[C@@H]1OC(N)=O [(8S,9S,12S,13R,14S,16R)-19-(2-(1H-imidazol-4-yl)ethylamino)-13-hydroxy-8,14-dimethoxy-4,10,12,16-tetramethyl-3,20,22-trioxo-2-azabicyclo[16.3.1]docosa-1(21),4,6,10,18-pentaen-9-yl carbamate]	6.10
CO[C@H]1C=CC=C(C)C(=O)Nc2cc(O)c(N=CCF)c(c2O)C[C@@H](C)C[C@H](OC)[C@H](O)[C@@H](C)/C=C(\C)[C@@H]1OC(N)=O [Carbamic acid (4E,6Z,10E)-(8S,9S,12S,13R,14S,16R)-19-(2-fluoro-ethylamino)-13-hydroxy-8,14-dimethoxy-4,10,12,16-tetramethyl-3,20,22-trioxo-2-aza-bicyclo[16.3.1]docosa-1(21),4,6,10,18-pentaen-9-yl ester]	6.10
CO[C@H]1[C@@H](OC)CC(C)=Cc2c(O)c(cc(O)c2N2CCC2)NC(=O)C(C)=CC=C[C@H](OC)[C@@H](OC(N)=O)/C(C)=C/[C@@H]1C [(8S,9S,12S,13R,14S,16R)-19-(azetidin-1-yl)-8,13,14-trimethoxy-4,10,12,16-tetramethyl-3,20,22-trioxo-2-azabicyclo[16.3.1]docosa-1(21),4,6,10,18-pentaen-9-yl carbamate]	5.40
CO[C@H]1C[C@H](C)Cc2c(O)c(cc(O)c2N=CCN(C)C)NC(=O)C(C)=CC=C[C@H](OC)[C@@H](OC(N)=O)/C(C)=C/[C@H](C)/C1=N\OCC(=O)O [2-(((8S,9S,12S,14S,16R)-9-(carbamoyloxy)-19-(2-(dimethylamino)ethylamino)-8,14-dimethoxy-4,10,12,16-tetramethyl-3,20,22-trioxo-2-azabicyclo[16.3.1]docosa-1(21),4,6,10,18-pentaen-13-ylidene)aminooxy)acetic acid]	< 4.60
CO[C@H]1[C@@H](OC)C[C@H](C)Cc2c(O)c(cc(O)c2N=CCN2CCCC2)NC(=O)C(C)=CC=C[C@H](OC)[C@@H](OC(N)=O)/C(C)=C/[C@@H]1C [(8S,9S,12S,13R,14S,16R)-8,13,14-trimethoxy-4,10,12,16-tetramethyl-3,20,22-trioxo-19-(2-(pyrrolidin-1-yl)ethylamino)-2-azabicyclo[16.3.1]docosa-1(21),4,6,10,18-pentaen-9-yl carbamate]	6.00
C=CCO[C@H]1[C@@H](OC)CC(C)=Cc2c(O)c(cc(O)c2N2CCC2)NC(=O)C(C)=CC=C[C@H](OC)[C@@H](OC(N)=O)/C(C)=C/[C@@H]1C [11-O-Allyl-17-(1-azetidinyl)-17-demethoxygeldanamycin]	5.54
CO[C@H]1[C@@H](OC)C[C@H](C)Cc2c(O)c(cc(O)c2N=CCN2CCC2)NC(=O)C(C)=CC=C[C@H](OC)[C@@H](OC(N)=O)/C(C)=C/[C@@H]1C [(8S,9S,12S,13R,14S,16R)-19-(2-(azetidin-1-yl)ethylamino)-8,13,14-trimethoxy-4,10,12,16-tetramethyl-3,20,22-trioxo-2-azabicyclo[16.3.1]docosa-1(21),4,6,10,18-pentaen-9-yl carbamate]	6.00
C=CC=Nc1c(O)cc2c(O)c1C[C@@H](C)C[C@H](OC)C(N=O)[C@@H](C)C=C(C)[C@H](OC(N)=O)[C@@H](OC)C=CC=C(C)C(=O)N2 (stereo partly drawn) [(8S,9S,12S,13E,14S,16R)-19-(allylamino)-13-(hydroxyimino)-8,14-dimethoxy-4,10,12,16-tetramethyl-3,20,22-trioxo-2-azabicyclo[16.3.1]docosa-1(21),4,6,10,18-pentaen-9-yl carbamate]	< 5.00
CO[C@H]1C=CC=C(C)C(=O)Nc2cc(O)c(N=CCN(C)C)c(c2O)C[C@@H](C)C[C@H](OC)[C@H](NCC(F)(F)F)[C@@H](C)/C=C(\C)[C@@H]1OC(N)=O [(8S,9S,12S,13R,14S,16R)-19-(2-(dimethylamino)ethylamino)-8,14-dimethoxy-4,10,12,16-tetramethyl-3,20,22-trioxo-13-(2,2,2-trifluoroethylamino)-2-azabicyclo[16.3.1]docosa-1(21),4,6,10,18-pentaen-9-yl carbamate]	5.40
CO[C@H]1C[C@H](C)Cc2c(O)c(cc(O)c2N=CCF)NC(=O)C(C)=CC=C[C@H](OC)[C@@H](OC(N)=O)C(C)=C[C@H](C)C1N=O (stereo partly drawn) [(8S,9S,12S,13E,14S,16R)-19-(2-fluoroethylamino)-13-(hydroxyimino)-8,14-dimethoxy-4,10,12,16-tetramethyl-3,20,22-trioxo-2-azabicyclo[16.3.1]docosa-1(21),4,6,10,18-pentaen-9-yl carbamate]	< 4.60
CO[C@H]1C=CC=C(C)C(=O)Nc2cc(O)c(N=CCN(C)C)c(c2O)C[C@@H](C)C[C@H](OC)[C@H](NCC(F)F)[C@@H](C)/C=C(\C)[C@@H]1OC(N)=O [(8S,9S,12S,13R,14S,16R)-13-(2,2-difluoroethylamino)-19-(2-(dimethylamino)ethylamino)-8,14-dimethoxy-4,10,12,16-tetramethyl-3,20,22-trioxo-2-azabicyclo[16.3.1]docosa-1(21),4,6,10,18-pentaen-9-yl carbamate]	5.54
C=CC=Nc1c(O)cc2c(O)c1C[C@@H](C)C[C@H](OC)[C@H](OC(=O)CCN)[C@@H](C)/C=C(\C)[C@H](OC(N)=O)[C@@H](OC)C=CC=C(C)C(=O)N2 [(8S,9S,12S,13R,14S,16R)-19-(allylamino)-9-(carbamoyloxy)-8,14-dimethoxy-4,10,12,16-tetramethyl-3,20,22-trioxo-2-azabicyclo[16.3.1]docosa-1(21),4,6,10,18-pentaen-13-yl 3-aminopropanoate]	< 4.60

Reference: BindingDB's records for doi:10.1021/jm900098v (Kosan Biosciences, 2009)
